Data as given in patent US12685733B2, “Indole molecules and use thereof in the inhibition of DNA polymerases” (BioVentures, LLC, priority 2019, dated 2026).

Legend:
hpol λ = molecular target: T1, hpol λ (Homo sapiens, UniProt Q9UGP5); test: Fluorescence-based polymerase assay, other pol families; type: biochemical; conditions: 10 μM; 10 nM hpol λ (X-family)
T1 construct: hpol λ, residues 1-325; gift of Dr. Miguel Garcia-Diaz (Stony Brook University)
T1 sequence (Q9UGP5 242-575 limits assumed): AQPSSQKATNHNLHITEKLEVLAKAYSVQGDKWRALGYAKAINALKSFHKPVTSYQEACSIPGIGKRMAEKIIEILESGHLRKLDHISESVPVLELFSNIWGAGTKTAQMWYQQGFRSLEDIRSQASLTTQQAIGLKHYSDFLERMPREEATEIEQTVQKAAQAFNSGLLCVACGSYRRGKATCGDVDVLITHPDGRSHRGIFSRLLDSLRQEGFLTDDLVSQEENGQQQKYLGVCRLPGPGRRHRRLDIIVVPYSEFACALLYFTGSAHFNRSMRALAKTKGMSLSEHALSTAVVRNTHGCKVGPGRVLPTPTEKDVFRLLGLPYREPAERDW

hpol κ [1] = molecular target: T2, hpol κ (Homo sapiens, UniProt Q9UBT6); test: Gel-based primer extension assay; type: biochemical; set-up: hpol κ (residues 19-526); made in house; conditions: 10 μM; 1 nM hpol κ
T2 sequence (Q9UBT6 19-526): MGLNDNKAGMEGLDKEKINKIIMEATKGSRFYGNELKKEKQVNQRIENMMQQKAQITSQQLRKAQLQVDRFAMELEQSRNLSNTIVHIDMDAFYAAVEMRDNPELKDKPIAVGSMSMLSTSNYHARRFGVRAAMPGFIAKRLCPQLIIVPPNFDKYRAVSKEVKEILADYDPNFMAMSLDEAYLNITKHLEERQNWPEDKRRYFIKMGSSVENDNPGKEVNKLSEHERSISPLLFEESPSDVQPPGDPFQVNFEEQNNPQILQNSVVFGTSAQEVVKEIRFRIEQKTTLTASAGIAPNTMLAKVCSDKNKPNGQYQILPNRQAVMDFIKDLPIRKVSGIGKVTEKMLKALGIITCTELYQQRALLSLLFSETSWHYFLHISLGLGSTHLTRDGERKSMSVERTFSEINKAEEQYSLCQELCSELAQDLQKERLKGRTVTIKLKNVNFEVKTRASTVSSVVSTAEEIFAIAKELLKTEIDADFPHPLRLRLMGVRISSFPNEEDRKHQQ

hpol κ [2] = molecular target: T2, hpol κ; test: HPG labeling (chemical footprinting) with LC-MS; set-up: hpol κ (residues 19-526); made in house; conditions: IAG-10 20 and 100 μM added
Description: HPG is a commonly used amino-acid modifier, which when reacted with a protein, modifies the L-arginine side chains selectively. HPG labeling experiments were performed with hpol κ (10 μM) in the presence or absence of UAMS-48. Briefly, hpol κ was pre-incubated with either 20 μM (1:2 molar ratio) or 100 μM (1:10 molar ratio) IAG-10 for 10 mins at 37° C. in 50 mM HEPES buffer (pH 7.8) containing 200 mM NaCl, 10 mM MgCl2, and 10% v/v DMSO. The HPG labeling was carried out at 37° C. in the dark for 1 hr by adding 500 μM of HPG to the pre-incubated reaction mix, followed by addition of 200 mM of free L-arginine to quench the reaction after 1 hr. […]
The peak intensity was then quantified manually using the corresponding m/z value and the relative abundance for each modified peptide was calculated as a function of area under the peak in Xcalibur™ software (ThermoFisher Scientific). The percentage of modified arginine measured by mass spectrometry was calculated as a fraction of total arginine (i.e. unmodified+HPG modified) quantified for a specific residue. […]
Next, Chemical footprinting was used in an effort to ascertain the binding site of IAG-10 on hpol κ. […] After quenching the reaction and gel electrophoresis, the modified protein was trypsin-digested, and the resulting peptides were analyzed by LC-MS. […]

Cl.[H]/N=C(\N)NN=Cc1cn(C(=O)c2cccc3ccccc23)c2ccc(Cl)cc12 [IAG-10, (E)-2-((1-(1-naphthoyl)-5-chloro-1H-indol-3-y1)methylene)hydrazine-1-carboximidamide hydrochloride]
polymerase activity relative to DMSO control (hpol λ): only hpol κ activity was inhibited
polymerase activity relative to DMSO control (hpol κ [1]): only hpol κ was inhibited
decrease in the fraction of HPG-modified peptides (Arg145, Arg149, Arg505) (hpol κ [2]): > 50%
fraction of HPG-modified peptides containing Arg48 (hpol κ [2]): large increase
